Target: human Nav1.7 (Homo sapiens (Human), UniProt Q15858)
Assay: FLIPR sodium dye assay with KCl and test article pre-incubation, recombinant Nav1.7/HEK293 cells
Format: cell-based
Settings: Nav1.7, FLIPR assay

human Nav1.7, sequence (Q15858 other isoform, or with tags, fused parts or gaps): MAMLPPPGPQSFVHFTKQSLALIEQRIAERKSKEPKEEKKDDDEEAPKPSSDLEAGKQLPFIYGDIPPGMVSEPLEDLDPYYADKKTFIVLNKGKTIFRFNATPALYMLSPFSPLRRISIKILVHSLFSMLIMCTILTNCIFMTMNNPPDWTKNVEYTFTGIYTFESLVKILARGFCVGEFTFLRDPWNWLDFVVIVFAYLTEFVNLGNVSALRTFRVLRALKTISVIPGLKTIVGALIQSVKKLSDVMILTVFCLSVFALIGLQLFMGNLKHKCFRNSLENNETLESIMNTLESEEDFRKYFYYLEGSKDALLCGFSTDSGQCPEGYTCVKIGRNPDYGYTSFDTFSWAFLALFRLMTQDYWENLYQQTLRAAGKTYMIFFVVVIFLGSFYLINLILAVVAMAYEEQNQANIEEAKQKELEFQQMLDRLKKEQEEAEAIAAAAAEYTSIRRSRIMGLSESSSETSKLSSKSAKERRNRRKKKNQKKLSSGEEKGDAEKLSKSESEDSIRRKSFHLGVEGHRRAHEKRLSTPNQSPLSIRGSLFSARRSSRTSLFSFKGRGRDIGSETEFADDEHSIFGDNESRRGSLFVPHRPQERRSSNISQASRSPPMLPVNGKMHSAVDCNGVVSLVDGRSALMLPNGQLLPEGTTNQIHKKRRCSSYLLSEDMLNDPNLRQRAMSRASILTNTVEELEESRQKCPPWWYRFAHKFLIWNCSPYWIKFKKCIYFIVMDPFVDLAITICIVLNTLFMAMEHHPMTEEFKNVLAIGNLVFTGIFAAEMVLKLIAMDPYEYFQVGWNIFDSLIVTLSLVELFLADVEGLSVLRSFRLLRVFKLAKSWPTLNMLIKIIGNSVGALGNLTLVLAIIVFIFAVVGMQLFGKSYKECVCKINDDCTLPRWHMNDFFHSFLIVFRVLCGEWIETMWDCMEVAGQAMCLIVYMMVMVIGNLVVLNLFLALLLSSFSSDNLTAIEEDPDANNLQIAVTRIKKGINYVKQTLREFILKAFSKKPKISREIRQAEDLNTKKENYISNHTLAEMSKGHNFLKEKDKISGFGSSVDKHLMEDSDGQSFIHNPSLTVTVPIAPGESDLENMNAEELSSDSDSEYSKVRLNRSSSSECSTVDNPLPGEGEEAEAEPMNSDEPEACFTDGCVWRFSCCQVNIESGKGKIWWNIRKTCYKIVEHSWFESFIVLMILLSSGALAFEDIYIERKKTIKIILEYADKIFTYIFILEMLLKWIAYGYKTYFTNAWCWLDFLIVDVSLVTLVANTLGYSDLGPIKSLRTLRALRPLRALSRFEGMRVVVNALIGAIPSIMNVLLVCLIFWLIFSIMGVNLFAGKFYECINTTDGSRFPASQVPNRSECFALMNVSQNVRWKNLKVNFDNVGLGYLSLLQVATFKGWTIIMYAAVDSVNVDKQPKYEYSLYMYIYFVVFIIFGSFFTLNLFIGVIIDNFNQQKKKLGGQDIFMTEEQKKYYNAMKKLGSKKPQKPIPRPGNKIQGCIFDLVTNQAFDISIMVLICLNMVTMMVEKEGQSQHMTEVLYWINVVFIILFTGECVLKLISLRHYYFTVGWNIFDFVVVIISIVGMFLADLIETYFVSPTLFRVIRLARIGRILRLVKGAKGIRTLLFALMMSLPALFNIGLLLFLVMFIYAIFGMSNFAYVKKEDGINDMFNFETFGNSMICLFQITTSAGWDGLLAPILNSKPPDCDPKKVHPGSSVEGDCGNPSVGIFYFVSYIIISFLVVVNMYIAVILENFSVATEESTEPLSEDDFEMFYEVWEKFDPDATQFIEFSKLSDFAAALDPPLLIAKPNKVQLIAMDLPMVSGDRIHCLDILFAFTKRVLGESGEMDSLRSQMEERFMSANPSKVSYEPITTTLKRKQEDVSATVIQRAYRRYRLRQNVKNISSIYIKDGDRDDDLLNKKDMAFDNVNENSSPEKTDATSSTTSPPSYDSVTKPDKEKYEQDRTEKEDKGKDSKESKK

Row | Compound | IC50
1 | O=C(c1ccc(OCC(F)(F)F)nc1)N1CCCC(c2ccccc2)C1 (stereo not drawn) [Compound 10, (3-phenylpiperidin-1-yl)(6-(2,2,2-trifluoroethoxy)pyridin-3-yl)methanone] | 1600 ± 105 nM
2 | CN(C)c1ncc(-c2ccccc2C2CCCN(C(=S)Nc3ccc(C(F)(F)F)cc3)C2)cn1 (stereo not drawn) [Compound 29, 3-(2-(2-(dimethylamino)pyrimidin-5-yl)phenyl)-N-(4-(trifluoromethyl)phenyl)piperidine-1-carbothioamide] | > 20000 nM
3 | COc1ccc(C(=O)N2CCCC(c3ccccc3-c3cnc(N(C)C)nc3)C2)cc1[C@@H](O)CO (stereo partly drawn) [Compound 34, (3-((R)-1,2-dihydroxyethyl)-4-methoxyphenyl)(3-(2-(2-(dimethylamino)pyrimidin-5-yl)phenyl)piperidin-1-yl)methanone] | > 20000 nM
4 | CN(C)c1ncc(-c2ccccc2C2CCCN(C(=O)c3cccc(C(N)=O)c3)C2)cn1 (stereo not drawn) [Compound 37, 3-(3-(2-(2-(dimethylamino)-pyrimidin-5-yl)phenyl)piperidine-1-carbonyl) benzamide] | > 20000 nM
5 | CN(C)c1ncc(-c2ccccc2C2CCCN(C(=O)c3ccc(OCC(F)(F)F)cc3)C2)cn1 (stereo not drawn) [Compound 40, (3-(2-(2-(dimethylamino)pyrimidin-5-yl)phenyl)piperidin-1-yl)(4-(2,2,2-trifluoroethoxy)phenyl)methanone] | 96 ± 6 nM
6 | O=C(c1ccc(OCC(F)(F)F)nc1)N1CCCC(c2ccccc2-c2ccc(O)nc2)C1 (stereo not drawn) [Compound 19, (3-(2-(6-hydroxypyridin-3-yl)phenyl)piperidin-1-yl)(6-(2,2,2-trifluoroethoxy)pyridin-3-yl)methanone] | 5470 ± 220 nM
7 | COc1ccc(C(=O)N2CCCC(c3ccccc3-c3cnc(N(C)C)nc3)C2)cc1 (stereo not drawn) [Compound 36, (3-(2-(2-(dimethylamino)pyrimidin-5-yl)phenyl)piperidin-1-yl)(4-methoxyphenyl)methanone] | 384 ± 80 nM
8 | O=C(c1ccc(OCC(F)(F)F)nc1)N1CCCC(c2ccccc2-c2ccc(F)nc2)C1 (stereo not drawn) [Compound 15, (3-(2-(6-fluoropyridin-3-yl)phenyl)piperidin-1-yl)(6-(2,2,2-trifluoroethoxy)pyridin-3-yl)methanone] | 954 ± 153 nM
9 | CN(C)c1ncc(-c2ccccc2C2CCCN(S(=O)(=O)c3ccc(OC(F)(F)F)cc3)C2)cn1 (stereo not drawn) [Compound 33, N,N-dimethyl-5-(2-(1-((4-(trifluoromethoxy)phenyl)sulfonyl)piperidin-3-yl)phenyl)pyrimidin-2-amine] | 376 ± 29 nM
10 | CN(C)c1ncc(-c2ccccc2C2CCCN(C(=O)c3ccc(OCC(F)(F)F)nc3)C2)cn1 (stereo not drawn) [Compound 18, (3-(2-(2-(dimethylamino)pyrimidin-5-yl)phenyl)piperidin-1-yl)(6-(2,2,2-trifluoroethoxy)pyridin-3-yl)methanone] | 558 ± 31 nM
11 | CN(C)c1ncc(-c2ccccc2C2CCCN(C(=O)Nc3ccc(OC(F)(F)F)cc3)C2)cn1 (stereo not drawn) [Compound 31, 3-(2-(2-(dimethylamino)pyrimidin-5-yl)phenyl)-N-(4-(trifluoromethoxy)phenyl)piperidine-1-carboxamide] | 941 ± 132 nM
12 | COc1ccc(C(=O)N2CCCC(c3ccccc3-c3cnc(N(C)C)nc3)C2)cc1[C@H](O)CO (stereo partly drawn) [Compound 35, (3-((S)-1,2-dihydroxyethyl)-4-methoxyphenyl)(3-(2-(2-(dimethylamino)pyrimidin-5-yl)phenyl)piperidin-1-yl)methanone] | 10000 to 20000 nM
13 | O=C(c1ccc(OCC(F)(F)F)nc1)N1CCCC(c2ccccc2O)C1 (stereo not drawn) [Compound 7, (3-(2-hydroxyphenyl)piperidin-1-yl)(6-(2,2,2-trifluoroethoxy)pyridin-3-yl)methanone] | 2570 ± 62 nM
14 | COc1ncc(-c2ccccc2C2CCCN(C(=O)c3ccc(OCC(F)(F)F)nc3)C2)cn1 (stereo not drawn) [Compound 13, (3-(2-(2-methoxypyrimidin-5-yl)phenyl)piperidin-1-yl)(6-(2,2,2-trifluoroethoxy)pyridin-3-yl)methanone] | 873 ± 27 nM

Next, values leading:

Row | IC50 | Compound
15 | > 20000 nM | CN(C)c1ncc(-c2ccccc2C2CCCN(S(=O)(=O)Nc3ncns3)C2)cn1 (stereo not drawn) [Compound 43, 3-(2-(2-(dimethylamino)pyrimidin-5-yl)phenyl)-N-(1,2,4-thiadiazol-5-yl)piperidine-1-sulfonamide]
16 | 672 ± 118 nM | COc1ccc(S(=O)(=O)N2CCCC(c3ccccc3-c3cnc(N(C)C)nc3)C2)cc1 (stereo not drawn) [Compound 32, 5-(2-(1-((4-methoxyphenyl)sulfonyl)piperidin-3-yl)phenyl)-N,N-dimethylpyrimidin-2-amine]
17 | 689 ± 35 nM | CN(C)c1ncc(-c2ccccc2C2CCCN(C(=O)c3ccc(OC(F)(F)F)cc3)C2)cn1 (stereo not drawn) [Compound 39, (3-(2-(2-(dimethylamino)pyrimidin-5-yl)phenyl)piperidin-1-yl)(4-(tri-fluoromethoxy)phenyl)methanone]
18 | > 20000 nM | CN(C)c1ncc(-c2ccccc2C2CCCN(C(=O)c3ccc(C(N)=O)cc3)C2)cn1 (stereo not drawn) [Compound 38, 4-(3-(2-(2-(dimethylamino)-pyrimidin-5-yl)phenyl)piperidine-1-carbonyl) benzamide]
19 | 691 ± 60 nM | COc1ncccc1-c1ccccc1C1CCCN(C(=O)c2ccc(OCC(F)(F)F)nc2)C1 (stereo not drawn) [Compound 17, (3-(2-(2-methoxypyridin-3-yl)phenyl)piperidin-1-yl)(6-(2,2,2-trifluoroethoxy)pyridin-3-yl)methanone]
20 | 209 ± 16 nM | COc1ncc(-c2ccccc2C2CCCN(C(=O)c3ccc(OCC(F)(F)F)cc3)C2)cn1 (stereo not drawn) [Compound 6, (3-(2-(2-methoxypyrimidin-5-yl)phenyl)piperidin-1-yl)(4-(2,2,2-trifluoroethoxy)phenyl) methanone]
21 | 676 ± 39 nM | CSc1ncc(-c2ccccc2C2CCCN(C(=O)c3ccc(OCC(F)(F)F)nc3)C2)cn1 (stereo not drawn) [Compound 16, (3-(2-(2-(methylthio)pyrimidin-5-yl)phenyl)piperidin-1-yl)(6-(2,2,2-trifluoroethoxy)pyridin-3-yl)methanone]
22 | 2520 ± 753 nM | COc1ccc(NC(=S)N2CCCC(c3ccccc3-c3cnc(N(C)C)nc3)C2)cc1 (stereo not drawn) [Compound 30, 3-(2-(2-(dimethylamino)pyrimidin-5-yl)phenyl)-N-(4-methoxyphenyl)piperidine-1-carbothioamide]
23 | 2570 ± 574 nM | COc1ncc(-c2ccccc2C2CCCN(C(=O)c3cccnc3N)C2)cn1 (stereo not drawn) [Compound 28, (2-aminopyridin-3-yl)(3-(2-(2-methoxypyrimidin-5-yl)phenyl)piperidin-1-yl)methanone]

Target: hNav1.7 (Homo sapiens (Human), UniProt Q15858)
Assay: Electrophysiology (EP) whole-cell patch clamp assay, hNav1.7 expressing HEK-293 cells
Format: cell-based
Settings: affinity for inactivated channels; read-out: Nav1.7 Activity EP assay Ki

hNav1.7, sequence (Q15858 other isoform, or with tags, fused parts or gaps): as above

Row | Ki | Compound
24 | 511 ± 100 nM | COc1ncc(-c2ccccc2C2CCCN(C(=O)c3ccc(OCC(F)(F)F)cc3)C2)cn1 (stereo not drawn) [Compound 6, (3-(2-(2-methoxypyrimidin-5-yl)phenyl)piperidin-1-yl)(4-(2,2,2-trifluoroethoxy)phenyl) methanone]
25 | 2100 ± 384 nM | COc1ncc(-c2ccccc2C2CCCN(C(=O)c3ccc(OCC(F)(F)F)nc3)C2)cn1 (stereo not drawn) [Compound 13, (3-(2-(2-methoxypyrimidin-5-yl)phenyl)piperidin-1-yl)(6-(2,2,2-trifluoroethoxy)pyridin-3-yl)methanone]

Same assay, conditions: resting block dissociation constant; read-out: Nav1.7 Activity EP assay Kr

Row | Kd | Compound
26 | 97900 ± 9300 nM | COc1ncc(-c2ccccc2C2CCCN(C(=O)c3ccc(OCC(F)(F)F)cc3)C2)cn1 (stereo not drawn) [Compound 6, (3-(2-(2-methoxypyrimidin-5-yl)phenyl)piperidin-1-yl)(4-(2,2,2-trifluoroethoxy)phenyl) methanone]
27 | 115000 ± 22300 nM | COc1ncc(-c2ccccc2C2CCCN(C(=O)c3ccc(OCC(F)(F)F)nc3)C2)cn1 (stereo not drawn) [Compound 13, (3-(2-(2-methoxypyrimidin-5-yl)phenyl)piperidin-1-yl)(6-(2,2,2-trifluoroethoxy)pyridin-3-yl)methanone]
